{"source": "patent US20110124745A1", "about": "“Switchable Anionic Surfactants and Methods of Making and Using Same” (priority 2009, published 2011)", "type_in_all_cases": "physicochemical", "key": {"[1]": {"test": "Switching efficiency by 1H NMR, method B (DMF internal standard)", "conditions": "relative to DMF standard set to 100", "from_the_text": "In both methods, to quantify the concentration of surfactant in solution, its ^1H NMR integration was compared to one of two internal standards of known concentration. In addition to the difference in which internal standard was used, the two methods can also be distinguished from each other on the basis of the timing of the addition of the internal standard. In method A, the standard remains in the solution during the process of switching. In method B, the switching is executed first and the DMF solution of known strength and quantity is added in to the solution.\nIn both methods, the surfactant was turned OFF with CO2 by positioning the needle that supplied the CO2 to the surfactant solution above the solution in such a way that the slow flow of CO2 was allowed to interact with the surfactant solution at the surface. The switching from ON to OFF required 5 min or less. Increasing the surface area, for example, by slightly tilting the vial, expedited the switching from ON to OFF. To turn the surfactant ON, the solution was stirred at 70° C. for 40 min as described above. After each ON cycle, 0.5 mL of D2O was added to the solution to compensate for the loss in the volume caused by evaporation.\nThe surfactant solution was prepared by combining 0.046 g of octyl 4-hydroxy-3-nitrobenzoate and 0.136 g of Na2CO3 in 16.0 mL of D2O. The resultant solution was homogenized by sonication for 2 min. 1.00 mL of this solution was transferred using a Hamilton syringe into thirteen different vials (1, 2, 2*, 3, 4, 5, 6, 7, 8, 9, 10, 11 and 12). Stirring bars were introduced in vials 2* through 12. […] The surfactant in vial 2 was turned OFF by the procedure described above. The solution in vial 2* was turned OFF with CO2 and was then left stirring uncapped at room temperature for 18 h. All the vials (excluding 2*) were tightly capped and left at room temperature for 18 h to confirm the stability of the systems in both the ON/OFF forms upon standing.\nThe standard solution of DMF was prepared by mixing 0.005 mL of DMF in 8.0 mL of D2O. […] The ^1H NMR spectra of all solutions were recorded. […]"}, "[2]": {"test": "Solubility observations (aqueous solution, DMSO)", "from_the_text": "The following study confirmed that compounds (1A) and (1N) reversibly convert from the neutral form (1N) to the anionic form (1A) and back to the neutral form over and over again with substantially no loss of product. The conversion was verified visually since the neutral form was not soluble in aqueous solution and appeared as a white precipitate in colourless liquid while the anionic form was fully soluble in aqueous solution and appeared as a clear yellow liquid (see FIG. 2). In addition to visual examination, ^1H NMR studies that are described below confirmed the presence of the hydroxyl proton in the spectra of the neutral form.\nSince n-octyl 4-hydroxy-3-nitrobenzoate (1N) and the […] salt of (1A) are soluble in DMSO and have some characteristic signals in the ^1H NMR spectrum, […] was used as a solvent to monitor the non-aqueous switchability by NMR spectroscopy."}, "[3]": {"test": "Switching from (1N) to (1A) using exposure to air", "conditions": "D2O with Na2CO3, uncapped, stirred at room temperature, 90 min", "experimental": "A solution of anionic surfactant (1A) was prepared by combining octyl 4-hydroxy-3-nitrobenzoate (1N) (0.023 g) and Na2CO3 (0.068 g) in 8.0 mL of D2O. The resultant solution was homogenized by sonication for 2 min. Aliquots (1.00 mL) of this solution were transferred by Hamilton syringe with a least count of 0.005 mL, into three different vials, which were labeled as vials A, B and C. Visual observations were made of vials A, B and C after 0, 30 and 90 min of stirring at room temperature under separate conditions as described below and are presented in FIG. 3A, 3B and 3C, respectively. […] The solution in vial A remained in the ON form (1A) throughout the experiment and it appeared as a yellow homogeneous solution that was free of any solids. A magnetic stir bar was introduced in vials B and C. The surfactant solutions in vials B and C were turned OFF by allowing a stream of CO2 provided by a needle to blow, CO2 at the surface of the solutions (the needle was not allowed to dip or touch the surface of the solution). Vial C was then capped and its cap was supplemented by […]™ to inhibit CO2 leakage. Thus at the beginning of this experiment, which is pictured in FIG. 3A, vial A held a solution in the ON form, and vials B and C held a solution in the OFF form. Vial B was then uncapped and stirred under passive exposure to air. Vial C was stirred under a passive CO2 headgas. […]"}, "[4]": {"test": "pKa of the protonated (neutral) form"}}, "data": [{"compound": "CCCCCCCCOC(=O)c1ccc(O)c([N+](=O)[O-])c1", "note": "[compound (1A), 2-nitro-4-(octyloxycarbonyl)phenolate]", "values": [{"measurement": "Proton integration at ~7.3 δ", "setting": "[1]; D2O with Na2CO3, vial 1, control, never switched (ON)", "value": 46}, {"measurement": "Proton integration at ~7.3 δ", "setting": "[1]; vial 2*: turned OFF with CO2, then stirred uncapped at room temperature", "value": 45}, {"measurement": "solubility in aqueous solution (visual)", "setting": "[2]", "value": "fully soluble"}]}, {"compound": "CCCCCCCCOC(=O)c1ccc(O)c([N+](=O)[O-])c1", "note": "[compound (1N), octyl 4-hydroxy-3-nitrobenzoate]", "values": [{"measurement": "conversion of OFF form to ON form by passive exposure to air", "setting": "[3]", "value": "passive exposure to air is sufficient"}, {"measurement": "Proton integration at ~7.3 δ", "setting": "[1]; filtered solution, vials 2, 4, 6, 8, 10, 12: cycles of Table 1 ending OFF (CO2)", "value": 0}, {"measurement": "pKa", "setting": "[4]", "value": "~5.5"}, {"measurement": "solubility in DMSO", "setting": "[2]", "value": "soluble"}]}]}
